Source: publication PMC10745882, “Investigation of Drug-Interaction Potential for Arthritis Dietary Supplements: Chondroitin Sulfate, Glucosamine, and Methylsulfonylmethane” (Molecules, 2023)

Experiments:
CYP3A4(M) = molecular target: T1, CYP3A4(M) (Homo sapiens, UniProt P08684); test: CYP inhibition assay in human liver microsomes (LC-MS/MS cocktail), midazolam to 1-OH-midazolam; format: in vitro ADME
T1 construct: Pooled human liver microsomes were purchased from BD Gentest; tissue BD Gentest; host or cells: pooled human liver microsomes
T1 sequence (P08684 whole entry): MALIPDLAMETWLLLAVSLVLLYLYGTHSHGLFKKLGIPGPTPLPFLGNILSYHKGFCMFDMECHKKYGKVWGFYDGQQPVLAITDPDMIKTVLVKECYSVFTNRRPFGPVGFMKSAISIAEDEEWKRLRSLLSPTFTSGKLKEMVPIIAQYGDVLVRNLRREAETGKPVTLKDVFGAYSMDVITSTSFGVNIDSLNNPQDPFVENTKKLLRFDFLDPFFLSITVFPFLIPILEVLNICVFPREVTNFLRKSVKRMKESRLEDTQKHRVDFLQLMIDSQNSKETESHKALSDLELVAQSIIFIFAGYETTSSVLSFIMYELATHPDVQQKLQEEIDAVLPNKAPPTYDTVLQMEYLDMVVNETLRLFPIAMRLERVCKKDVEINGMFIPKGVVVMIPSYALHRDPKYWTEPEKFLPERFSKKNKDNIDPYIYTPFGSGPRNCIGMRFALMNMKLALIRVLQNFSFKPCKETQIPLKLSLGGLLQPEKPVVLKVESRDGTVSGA
Experimental: For the experimental method, the reference method was used. […] The reaction mixture, excluding NGS, underwent pre-incubation at 37 °C for 5 min, followed by further incubation with NGS for 30 min in a water bath. […] Post incubation, the reaction was halted by adding 50 µL ice-cold 1% formic acid acetonitrile. After centrifugation at 13,200 rpm for 5 min, the supernatant was collected from the sample and subjected to analysis via an LC-MS/MS system. All experiments were performed in triplicate.
For the experimental method, the reference method was used. […] The HPLC mobile phases comprised (A) 0.1% formic acid and (B) 0.1% formic acid in 90% acetonitrile. […] The total run time was 11.0 min, and the injection volume was 5 µL. Mass detection was conducted in the positive ion mode using multiple reaction monitoring (MRM). Specific MRM transitions for each analyte are detailed in Table S4.

[1] = test system: seven CYP isozymes (CYP1A2, CYP2A6, CYP2B6, CYP2C9, CYP2C19, CYP2D6, CYP3A4); test: CYP inhibition assay in human liver microsomes, statements on all tested isozymes; format: in vitro ADME
Experimental: (§1) For the experimental method, the reference method was used. Briefly, incubation mixtures were composed of 0.5 mg/mL human liver microsomes; varying concentrations of CS in DW (0.1, 0.3, 1, 3, 10, 30, 100, and 200 µM) or MSM in DW (0.1, 0.3, 1, 3, 10, 30, 100, 300, and 1000 µM) or GCS in DMSO (0.1, 0.3, 1, 3, 10, 30, 100, 300, and 1000 µM); a substrate mixture in DMSO (40 µM phenacetin for CYP1A2; 2.5 µM coumarin for CYP2A6; 80 µM bupropion for CYP2B6; 10 µM diclofenac for CYP2C9; 80 µM [±]-mephenytoin for CYP2C19; 5 µM dextromethorphan for CYP2D6; 2.5 µM midazolam and 30 µM testosterone for CYP3A4); and an NADPH generating system (NGS; 0.1 M glucose-6-phosphate, 10 mg/mL β-NADP^+, and 1 U/mL glucose-6-phosphate dehydrogenase) in a total volume of 200 µL potassium phosphate buffer (0.1 M, pH 7.4). The reaction mixture, excluding NGS, underwent pre-incubation at 37 °C for 5 min, followed by further incubation with NGS for 30 min in a water bath. Well-established selective CYP inhibitors were employed as positive controls (40 µM ketoconazole for CYP3A4, 50 µM furafyllin for CYP1A2, 10 µM quinidine for CYP2D6, 125 µM ticlopidine for CYP2C19 and CYP2B6, 10 µM 8-methoxsalen for CYP2A6, and 10 µM sulfaphenazole for CYP2C9). Post incubation, the reaction was halted by adding 50 µL ice-cold 1% formic acid acetonitrile. After centrifugation at 13,200 rpm for 5 min, the supernatant was collected from the sample and subjected to analysis via an LC-MS/MS system. All experiments were performed in triplicate.
For the experimental method, the reference method was used. The LC-MS/MS system utilized in this study consisted of an Agilent 1260 binary pump HPLC system coupled with the Agilent 6460 Triple Quadrupole mass spectrometer (Agilent Technologies, Santa Clara, CA, USA), featuring an electrospray ionization source. Chromatographic separation was achieved using a Fortis C8 column (2.1 × 100 mm, 5.0 µm; Fortis Technologies Ltd., Neston, UK). The HPLC mobile phases comprised (A) 0.1% formic acid and (B) 0.1% formic acid in 90% acetonitrile. […]

CYP2D6 [2] = molecular target: T2, CYP2D6 (Homo sapiens, UniProt P10635); design: method as in PMID 34821124, PMID 29488228; conditions: previous studies; cited from earlier work
T2 construct: Pooled human liver microsomes were purchased from BD Gentest; tissue BD Gentest; host or cells: pooled human liver microsomes
T2 sequence (P10635 whole entry): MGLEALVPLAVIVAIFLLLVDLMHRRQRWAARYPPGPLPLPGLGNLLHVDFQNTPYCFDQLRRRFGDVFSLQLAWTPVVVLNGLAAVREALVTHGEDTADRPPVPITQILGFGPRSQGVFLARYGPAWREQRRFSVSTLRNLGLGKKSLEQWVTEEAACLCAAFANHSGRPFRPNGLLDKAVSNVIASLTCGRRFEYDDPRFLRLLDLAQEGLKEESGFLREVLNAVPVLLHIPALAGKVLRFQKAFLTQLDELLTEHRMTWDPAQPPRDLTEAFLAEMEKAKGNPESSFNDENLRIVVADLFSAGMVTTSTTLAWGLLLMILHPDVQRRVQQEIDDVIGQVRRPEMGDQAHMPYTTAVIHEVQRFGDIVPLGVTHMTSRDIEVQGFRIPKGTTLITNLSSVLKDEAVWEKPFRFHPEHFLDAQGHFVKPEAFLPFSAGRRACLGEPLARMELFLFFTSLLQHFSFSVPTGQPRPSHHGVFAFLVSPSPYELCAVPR

CYP2E1 = test system: CYP2E1; design: method as in PMID 20408500; conditions: related report; cited from earlier work
CYP2A6 = molecular target: T3, CYP2A6 (Homo sapiens, UniProt P11509); test: CYP inhibition assay in human liver microsomes (LC-MS/MS cocktail), coumarin to 7-OH-coumarin; format: in vitro ADME
T3 construct: Pooled human liver microsomes were purchased from BD Gentest; tissue BD Gentest; host or cells: pooled human liver microsomes
T3 sequence (P11509 1-494): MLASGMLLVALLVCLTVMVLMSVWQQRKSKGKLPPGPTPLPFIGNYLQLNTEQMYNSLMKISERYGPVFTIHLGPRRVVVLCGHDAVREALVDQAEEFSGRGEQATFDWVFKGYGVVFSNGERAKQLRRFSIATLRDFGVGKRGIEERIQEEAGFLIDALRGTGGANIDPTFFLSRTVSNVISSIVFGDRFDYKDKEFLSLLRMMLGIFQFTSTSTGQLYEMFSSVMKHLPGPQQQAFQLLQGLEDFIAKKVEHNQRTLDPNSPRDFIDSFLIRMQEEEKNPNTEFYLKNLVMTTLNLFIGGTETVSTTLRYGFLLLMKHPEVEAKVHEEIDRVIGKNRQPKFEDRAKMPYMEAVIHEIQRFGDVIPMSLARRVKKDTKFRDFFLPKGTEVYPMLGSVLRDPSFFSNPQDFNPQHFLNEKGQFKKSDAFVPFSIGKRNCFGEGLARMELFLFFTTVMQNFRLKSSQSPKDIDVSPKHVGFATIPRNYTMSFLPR
Experimental: as §1
(§2) For the experimental method, the reference method was used. The LC-MS/MS system utilized in this study consisted of an Agilent 1260 binary pump HPLC system coupled with the Agilent 6460 Triple Quadrupole mass spectrometer (Agilent Technologies, Santa Clara, CA, USA), featuring an electrospray ionization source. Chromatographic separation was achieved using a Fortis C8 column (2.1 × 100 mm, 5.0 µm; Fortis Technologies Ltd., Neston, UK). The HPLC mobile phases comprised (A) 0.1% formic acid and (B) 0.1% formic acid in 90% acetonitrile. A gradient elution method was employed with an initial solvent B concentration of 15% and a flow rate of 0.25 mL/min. […] The total run time was 11.0 min, and the injection volume was 5 µL. Mass detection was conducted in the positive ion mode using multiple reaction monitoring (MRM). Specific MRM transitions for each analyte are detailed in Table S4.

CYP2C9 = molecular target: T4, CYP2C9 (Homo sapiens, UniProt P11712); test: CYP inhibition assay in human liver microsomes (LC-MS/MS cocktail), diclofenac to 4-OH-diclofenac; format: in vitro ADME
T4 construct: Pooled human liver microsomes were purchased from BD Gentest; tissue BD Gentest; host or cells: pooled human liver microsomes
T4 sequence (P11712 whole entry): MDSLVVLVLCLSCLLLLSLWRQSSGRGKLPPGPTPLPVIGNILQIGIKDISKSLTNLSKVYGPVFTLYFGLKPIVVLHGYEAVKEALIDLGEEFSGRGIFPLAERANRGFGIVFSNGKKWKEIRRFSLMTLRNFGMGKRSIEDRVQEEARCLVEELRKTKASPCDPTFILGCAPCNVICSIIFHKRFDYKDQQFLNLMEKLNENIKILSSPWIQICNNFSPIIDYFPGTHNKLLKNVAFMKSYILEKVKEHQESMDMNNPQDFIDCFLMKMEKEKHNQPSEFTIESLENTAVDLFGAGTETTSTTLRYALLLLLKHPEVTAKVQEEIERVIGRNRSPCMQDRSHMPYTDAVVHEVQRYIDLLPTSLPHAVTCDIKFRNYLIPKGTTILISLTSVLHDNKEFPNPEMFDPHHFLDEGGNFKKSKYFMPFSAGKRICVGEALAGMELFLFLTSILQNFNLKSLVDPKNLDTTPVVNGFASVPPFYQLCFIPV
Experimental: as §1, §2

CYP2D6 [3] = molecular target: T2, CYP2D6; test: CYP inhibition assay in human liver microsomes (LC-MS/MS cocktail), dextromethorphan to dextrorphan; format: in vitro ADME
Experimental: as §1, §2

In the case of `N[C@H]1C(O)O[C@H](CO)[C@@H](O)[C@@H]1O` (some centres unmarked) [GCS, glucosamine], the “Remaining Activities (% of Control, n = 3)” value (CYP3A4(M); test substance 0.3 μM) is reported as 104.4 ± 13.5 % of Control, the “Remaining Activities (% of Control, n = 3)” value (CYP3A4(M); test substance 1 μM) is reported as 103.5 ± 3.2 % of Control and the “Remaining Activities (% of Control, n = 3)” value (CYP3A4(M); test substance 3 μM) is reported as 98.3 ± 1.9 % of Control. For the same compound, the “Remaining Activities (% of Control, n = 3)” value (CYP3A4(M); test substance 10 μM) was 97.2 ± 1.5 % of Control, the “Remaining Activities (% of Control, n = 3)” value (CYP3A4(M); test substance 30 μM) was 96.9 ± 6.1 % of Control and the “Remaining Activities (% of Control, n = 3)” value (CYP3A4(M); test substance 100 μM) was 95.2 ± 8.2 % of Control. For the same compound, the “Remaining Activities (% of Control, n = 3)” value (CYP3A4(M); test substance 300 μM) was 91.0 ± 3.3 % of Control, the “Remaining Activities (% of Control, n = 3)” value (CYP3A4(M); test substance 1000 μM) was 88.7 ± 12.1 % of Control and the “inhibitory effects on CYP1A2, CYP2A6, CYP2B6, CYP2C9, CYP2C19, CYP2D6, and CYP3A4” value [1] was “no inhibitory effects”. The “inhibitory effects on CYP2D6” value (CYP2D6 [2]) was “no inhibitory effects”, the “inhibitory effect on CYP2E1” value (CYP2E1) was “no inhibitory effect” and the “Remaining Activities (% of Control, n = 3)” value (CYP2A6; test substance 0.3 μM) was 107.6 ± 5.2 % of Control. For the same compound, the “Remaining Activities (% of Control, n = 3)” value (CYP2A6; test substance 1 μM) was 105.3 ± 0.4 % of Control, the “Remaining Activities (% of Control, n = 3)” value (CYP2A6; test substance 3 μM) was 106.2 ± 2.3 % of Control and the “Remaining Activities (% of Control, n = 3)” value (CYP2A6; test substance 10 μM) was 101.5 ± 1.4 % of Control. For the same compound, the “Remaining Activities (% of Control, n = 3)” value (CYP2A6; test substance 30 μM) was 102.1 ± 2.5 % of Control, the “Remaining Activities (% of Control, n = 3)” value (CYP2A6; test substance 100 μM) was 103.4 ± 2.7 % of Control and the “Remaining Activities (% of Control, n = 3)” value (CYP2A6; test substance 300 μM) was 97.9 ± 0.4 % of Control. The “Remaining Activities (% of Control, n = 3)” value (CYP2A6; test substance 1000 μM) was 94.1 ± 7.3 % of Control, the “Remaining Activities (% of Control, n = 3)” value (CYP2C9; test substance 0.3 μM) was 115.5 ± 15.2 % of Control and the “Remaining Activities (% of Control, n = 3)” value (CYP2C9; test substance 1 μM) was 108.7 ± 1.7 % of Control. For the same compound, the “Remaining Activities (% of Control, n = 3)” value (CYP2C9; test substance 3 μM) was 109.2 ± 2.4 % of Control, the “Remaining Activities (% of Control, n = 3)” value (CYP2C9; test substance 10 μM) was 104.0 ± 2.3 % of Control and the “Remaining Activities (% of Control, n = 3)” value (CYP2C9; test substance 30 μM) was 105.8 ± 2.7 % of Control. The “Remaining Activities (% of Control, n = 3)” value (CYP2C9; test substance 100 μM) was 101.2 ± 4.8 % of Control, the “Remaining Activities (% of Control, n = 3)” value (CYP2C9; test substance 300 μM) was 97.2 ± 2.8 % of Control and the “Remaining Activities (% of Control, n = 3)” value (CYP2C9; test substance 1000 μM) was 91.1 ± 10.1 % of Control. The “Remaining Activities (% of Control, n = 3)” value (CYP2D6 [3]; test substance 0.3 μM) was 107.6 ± 7.4 % of Control, the “Remaining Activities (% of Control, n = 3)” value (CYP2D6 [3]; test substance 1 μM) was 104.9 ± 1.0 % of Control and the “Remaining Activities (% of Control, n = 3)” value (CYP2D6 [3]; test substance 3 μM) was 106.2 ± 3.7 % of Control. The “Remaining Activities (% of Control, n = 3)” value (CYP2D6 [3]; test substance 10 μM) was 101.6 ± 0.5 % of Control, the “Remaining Activities (% of Control, n = 3)” value (CYP2D6 [3]; test substance 30 μM) was 100.4 ± 1.4 % of Control and the “Remaining Activities (% of Control, n = 3)” value (CYP2D6 [3]; test substance 100 μM) was 102.6 ± 1.7 % of Control. For the same compound, the “Remaining Activities (% of Control, n = 3)” value (CYP2D6 [3]; test substance 300 μM) was 100.6 ± 1.3 % of Control and the “Remaining Activities (% of Control, n = 3)” value (CYP2D6 [3]; test substance 1000 μM) was 99.5 ± 4.8 % of Control.
